From ChEMBL document CHEMBL3351292, “Structure-Based Design and Synthesis of Potent Cyclic Peptides Inhibiting the YAP-TEAD Protein-Protein Interaction” (ACS Med Chem Lett, 2014) come the findings set out here.

Where a SMILES comes first, the peptide text is derived from it.

In the assay the target is Transcriptional coactivator YAP1/Transcriptional enhancer factor TEF-1 (Homo sapiens) (UniProt P46937+P28347). The assay can be described thus: Inhibition of YAP/ GST-TEAD1 (unknown origin) interaction at 50 uM by surface plasmon resonance assay. The assay is classed as protein assay. Background: In SPR one partner is held on a chip, and binding of the other changes the refractive index at the surface.
Chain of Transcriptional coactivator YAP1/Transcriptional enhancer factor TEF-1 (Homo sapiens) (P28347 whole entry, looked up): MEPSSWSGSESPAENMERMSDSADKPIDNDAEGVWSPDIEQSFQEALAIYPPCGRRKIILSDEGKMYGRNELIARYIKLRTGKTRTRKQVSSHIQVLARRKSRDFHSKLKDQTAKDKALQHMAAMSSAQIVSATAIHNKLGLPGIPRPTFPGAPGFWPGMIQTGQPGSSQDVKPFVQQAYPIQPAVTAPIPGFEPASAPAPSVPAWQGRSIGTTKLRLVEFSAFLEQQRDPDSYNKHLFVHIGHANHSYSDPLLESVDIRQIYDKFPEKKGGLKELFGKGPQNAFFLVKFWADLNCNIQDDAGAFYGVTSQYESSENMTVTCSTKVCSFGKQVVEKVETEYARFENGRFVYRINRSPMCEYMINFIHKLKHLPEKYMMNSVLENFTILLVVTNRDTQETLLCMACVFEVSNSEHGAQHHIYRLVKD
Chain of Transcriptional coactivator YAP1/Transcriptional enhancer factor TEF-1 (Homo sapiens) (P46937 whole entry, looked up): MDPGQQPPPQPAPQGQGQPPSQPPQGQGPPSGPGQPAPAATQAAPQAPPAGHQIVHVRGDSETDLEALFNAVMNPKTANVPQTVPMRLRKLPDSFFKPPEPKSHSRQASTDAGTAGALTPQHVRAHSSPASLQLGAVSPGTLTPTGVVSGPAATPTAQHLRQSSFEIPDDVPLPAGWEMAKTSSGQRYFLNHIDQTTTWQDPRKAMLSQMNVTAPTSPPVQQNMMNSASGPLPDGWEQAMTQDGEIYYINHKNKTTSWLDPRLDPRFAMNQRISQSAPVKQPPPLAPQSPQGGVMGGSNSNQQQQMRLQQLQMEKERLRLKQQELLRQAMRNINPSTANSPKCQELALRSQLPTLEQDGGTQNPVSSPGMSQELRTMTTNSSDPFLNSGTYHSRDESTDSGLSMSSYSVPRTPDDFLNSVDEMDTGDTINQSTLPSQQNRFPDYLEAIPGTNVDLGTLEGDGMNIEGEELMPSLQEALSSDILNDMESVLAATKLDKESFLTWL
As a reminder, the inhibition is the share of the control response that was lost under treatment. For `CSCC[C@H](NC(=O)[C@@H]1CCCN1C(=O)[C@@H](NC(=O)[C@@H](NC(=O)[C@H](CCC(N)=O)NC(C)=O)[C@@H](C)O)C(C)C)C(=O)N[C@@H](CCCNC(=N)N)C(=O)N[C@@H](CC(C)C)C(=O)N[C@@H](CCCNC(=N)N)C(=O)N[C@@H](CCCCN)C(=O)N[C@@H](CC(C)C)C(=O)N1CCC[C@H]1C(=O)N[C@@H](CC(=O)O)C(=O)N[C@@H](CO)C(=O)N[C@@H](Cc1ccccc1)C(=O)N[C@@H](Cc1ccccc1)C(=O)N[C@@H](CCCCN)C(=O)N1CCC[C@H]1C(=O)N1CCC[C@H]1C(=O)N[C@@H](CCC(=O)O)C(N)=O`, the inhibition worked out at 59%.
As for `CSCC[C@H](NC(=O)[C@@H]1CCCN1C(=O)[C@@H](NC(=O)[C@@H](NC(C)=O)[C@@H](C)O)C(C)C)C(=O)N[C@@H](CCCNC(=N)N)C(=O)N[C@@H](CC(C)C)C(=O)N[C@@H](CCCNC(=N)N)C(=O)N[C@@H](CCCCN)C(=O)N[C@@H](CC(C)C)C(=O)N1CCC[C@H]1C(=O)N[C@@H](CC(=O)O)C(=O)N[C@@H](CO)C(=O)N[C@@H](Cc1ccccc1)C(=O)N[C@@H](Cc1ccccc1)C(=O)N[C@@H](CCCCN)C(=O)N1CCC[C@H]1C(=O)N1CCC[C@H]1C(=O)N[C@@H](CCC(=O)O)C(N)=O`, the figure is 60%; as for `CSCC[C@H](NC(=O)[C@@H]1CCCN1C(=O)[C@@H](NC(=O)[C@H](C)NC(=O)[C@H](CCC(N)=O)NC(=O)[C@@H]1CCCN1C(C)=O)C(C)C)C(=O)N[C@@H](CCCNC(=N)N)C(=O)N[C@@H](CC(C)C)C(=O)N[C@@H](CCCNC(=N)N)C(=O)N[C@@H](CCCCN)C(=O)N[C@@H](CC(C)C)C(=O)N1CCC[C@H]1C(=O)N[C@@H](CC(=O)O)C(=O)N[C@@H](CO)C(=O)N[C@@H](Cc1ccccc1)C(=O)N[C@@H](Cc1ccccc1)C(=O)N[C@@H](CCCCN)C(=O)N1CCC[C@H]1C(=O)N1CCC[C@H]1C(=O)N[C@@H](CCC(=O)O)C(N)=O`, 52%.
As for `CSCC[C@H](NC(C)=O)C(=O)N[C@@H](CCCNC(=N)N)C(=O)N[C@@H](CC(C)C)C(=O)N[C@@H](CCCNC(=N)N)C(=O)N[C@@H](CCCCN)C(=O)N[C@@H](CC(C)C)C(=O)N1CCC[C@H]1C(=O)N[C@@H](CC(=O)O)C(=O)N[C@@H](CO)C(=O)N[C@@H](Cc1ccccc1)C(=O)N[C@@H](Cc1ccccc1)C(=O)N[C@@H](CCCCN)C(=O)N1CCC[C@H]1C(=O)N1CCC[C@H]1C(=O)N[C@@H](CCC(=O)O)C(N)=O` (Ac-MRLRKLPDSFFKPPE-NH2), the figure is 12%; as for `CSCC[C@H](NC(=O)[C@@H]1CCCN1C(C)=O)C(=O)N[C@@H](CCCNC(=N)N)C(=O)N[C@@H](CC(C)C)C(=O)N[C@@H](CCCNC(=N)N)C(=O)N[C@@H](CCCCN)C(=O)N[C@@H](CC(C)C)C(=O)N1CCC[C@H]1C(=O)N[C@@H](CC(=O)O)C(=O)N[C@@H](CO)C(=O)N[C@@H](Cc1ccccc1)C(=O)N[C@@H](Cc1ccccc1)C(=O)N[C@@H](CCCCN)C(=O)N1CCC[C@H]1C(=O)N1CCC[C@H]1C(=O)N[C@@H](CCC(=O)O)C(N)=O` (Ac-PMRLRKLPDSFFKPPE-NH2), 25%; as for `CSCC[C@H](NC(=O)[C@@H]1CCCN1C(=O)[C@H](C)NC(=O)[C@@H](NC(=O)[C@H](CCC(N)=O)NC(=O)[C@@H]1CCCN1C(C)=O)[C@@H](C)O)C(=O)N[C@@H](CCCNC(=N)N)C(=O)N[C@@H](CC(C)C)C(=O)N[C@@H](CCCNC(=N)N)C(=O)N[C@@H](CCCCN)C(=O)N[C@@H](CC(C)C)C(=O)N1CCC[C@H]1C(=O)N[C@@H](CC(=O)O)C(=O)N[C@@H](CO)C(=O)N[C@@H](Cc1ccccc1)C(=O)N[C@@H](Cc1ccccc1)C(=O)N[C@@H](CCCCN)C(=O)N1CCC[C@H]1C(=O)N1CCC[C@H]1C(=O)N[C@@H](CCC(=O)O)C(N)=O` (Ac-PQTAPMRLRKLPDSFFKPPE-NH2), 26%.
